# Several values for one entry are separate records, joined by “and”; a condition that tells them apart may be missing. Equal values may be shown once. Read-outs that look alike come from different tables or passages of the source.
# What was measured:
# [1] = cited from earlier work; for relaxivity: 4.7 T printed for Fe(EDTA) only
# [2] = system: Balb/c mice; experiment: Dynamic T1-weighted MRI in mice after tail vein injection (4.7 T); assay type: in vivo; conditions: healthy mouse, 0.05 mmol/kg, kidneys/blood, up to 45 min
# From the text: The two new Fe(III) complexes, Fe(L1)(OH2) and […], and the Gd(III) agent, Gd(DOTA), were studied in Balb/c mice on a small animal 4.7-T MRI scanner upon tail vein injection of the agent (Figure S24, Supplementary Materials). […] Biodistribution and pharmacokinetic clearance of the complexes in mice were monitored by using dynamic MRI.
# In vivo imaging studies with the Fe(III) complexes were studied on at 4.7 T Bruker preclinical MRI in mice (BABC/cJ, Jackson Laboratory) in accordance with approved Institutional Animal Care and Use Committee (IACUC) protocols. The samples with a concentration of 0.050, 0.100, and 0.200 mmol [Fe]/kg. The Fe(III) complex stock solutions were adjusted to pH 7.2 by addition of meglumine and were injected intravenously via tail vein. MR data were recorded continuously for up to 1 h. Distribution studies and clearance kinetics were studied by using MR data acquired over several time points for up to 1 h, and additionally at 4 h and 24 h. For comparison, The Food and Drug Administration (FDA)-approved MRI contrast agent gadopentetate dimeglumine (Gd(DTPA), Magnevist®) and gadoterate meglumine (Gd(DOTA), Dotarem®) were injected at 50.0 μmol [Gd]/kg into separate group of mice and imaged as above.
# [3] = molecular target: T1, human serum albumin (HSA) (Homo sapiens, UniProt P02768); experiment: Binding to human serum albumin by ultrafiltration / ICP-MS; assay type: in vitro ADME; conditions: 0.4 mM complex, HSA 4.5% (w/v) (0.7 mM), 20 mM HEPES pH 7.4, 100 mM NaCl, 37 °C, 20 min
# T1 construct: Albumin from human serum (fatty acid free) was purchased from Sigma-Aldrich; purchased Sigma-Aldrich; host or cells: purified from human serum
# Method: Binding of the Fe(III) complexes to human serum albumin (HSA) was studied by using ultrafiltration across a MW 5000 cutoff membrane. The solutions containing HEPES buffer (pH 7.4) and salt NaCl were incubated at 37 °C for 20 min. Solutions contained 0.4 mM Fe(III) complex and 4.5 % (w/v) HSA (0.7 mM). The binding percentages were measured by using ICP-MS to analyze the Fe concentration in the unbound complex solutions after HSA incubation (Table 1). The protein binding for Fe(L3)(OH2) was higher (75%) than for Fe(L1)(OH2) (37%) or Fe(L2) (11%).
# The molecular weight of 66,435 Da was used to determine the molar concentrations of HSA. Fe(III) complex (0.400 mM) solutions were incubated with 4.5% (w/v) HSA in 0.100 M NaCl and 20.0 mM HEPES buffer (pH 7.4). All solutions were incubated at 37 °C for 20 min [42]. Aliquots (0.300 mL) were placed in ultra-centrifugal filter units with a 5-kDa membrane and centrifuged at 3500× g for 10 min. The filtrates were used to determine Fe concentration from digested unbound Fe(III) complexes by using ICP-MS.
# [4] = 'was reported', reference not given, cited from earlier work
# [5] = system: Balb/c mice; set-up: method as in PMID 31725934; conditions: cited from earlier work
# [6] = set-up: method as in PMID 31725934; conditions: 1-octanol/water; cited from earlier work
# [7] = set-up: method as in PMID 31725934; conditions: 100 mM HCl, cited from earlier work
# [8] = set-up: method as in PMID 31725934; conditions: comparison complex, no titration described in this paper; cited from earlier work
# T1 sequence (P02768 25-609): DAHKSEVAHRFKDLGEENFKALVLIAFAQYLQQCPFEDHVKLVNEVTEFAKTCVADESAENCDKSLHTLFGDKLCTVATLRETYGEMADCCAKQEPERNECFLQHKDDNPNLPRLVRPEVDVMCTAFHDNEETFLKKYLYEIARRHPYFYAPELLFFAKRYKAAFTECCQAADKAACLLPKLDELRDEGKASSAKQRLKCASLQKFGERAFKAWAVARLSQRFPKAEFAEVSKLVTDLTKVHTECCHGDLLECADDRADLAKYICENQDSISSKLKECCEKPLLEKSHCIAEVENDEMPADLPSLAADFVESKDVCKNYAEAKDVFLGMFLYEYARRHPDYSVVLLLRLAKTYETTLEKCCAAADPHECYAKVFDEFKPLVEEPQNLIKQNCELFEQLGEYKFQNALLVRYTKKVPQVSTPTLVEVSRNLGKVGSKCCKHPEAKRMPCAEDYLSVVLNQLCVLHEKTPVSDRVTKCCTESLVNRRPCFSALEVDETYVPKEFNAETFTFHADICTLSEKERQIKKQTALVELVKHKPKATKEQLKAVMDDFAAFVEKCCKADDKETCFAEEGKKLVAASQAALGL
smiles,measurement,setting,value
O=C([O-])CN(CCN(CC(=O)[O-])CC(=O)[O-])CCN(CC(=O)[O-])CC(=O)[O-].[Fe+3] [Fe(DTPA)],relaxivity,[1],0.51 mM⁻¹ s⁻¹
O=C([O-])CN(CCN(CC(=O)[O-])CC(=O)[O-])CC(=O)[O-].[Fe+3] [Fe(EDTA)],relaxivity,[1],1.4 mM⁻¹ s⁻¹
C[C@H]([O-])CN1CCN(Cc2ccccc2)CCN(C[C@H](C)O)CC1.O.[Fe+3] [Fe(L3)(OH2)],T1-weighted contrast enhancement compared with other agents,[2],much stronger than that of Fe(L1)(OH2) or Gd(DOTA)
same,HSA Binding (%),[3],75% and 75.1 ± 3.7%
same,electrode potential (E1/2) vs. Ag/AgCl,[4]; pH 3,112 mV
same,electrode potential (E1/2) vs. NHE,[4]; pH 3,400 mV
same,electrode potential (E1/2) vs. Ag/AgCl,[4]; pH 7,−588 mV
same,electrode potential (E1/2) vs. NHE,[4]; pH 7,−300 mV
same,duration of enhanced kidney contrast,[5],up to four hours
same,Log P,[6],−0.13
same,r2 4.7 T,[1]; 4.7 T,4.5 ± 1.1 mM⁻¹ s⁻¹
same,r1 4.7 T,"[1]; buffer, pH 7.4, 37 °C, 4.7 T",2.2 mM⁻¹ s⁻¹ and 2.2 ± 0.30 mM⁻¹ s⁻¹
same,r1 in HSA 4.7 T,"[1]; in HSA, 4.7 T",2.5 ± 0.10 mM⁻¹ s⁻¹
same,r2 in HSA 4.7 T,"[1]; in HSA, 4.7 T",4.2 ± 0.70 mM⁻¹ s⁻¹
same,dissociation in acidic solution,[7]; over 24 h,14%
same,dissociation in acidic solution,[7]; over 72 h,38%
same,Log K1 (pKa2),[8],7.17 ± 0.01
"CNC[C@H](O)[C@@H](O)[C@H](O)[C@H](O)CO.O=C([O-])CN1CCN(CC(=O)[O-])CCN(CC(=O)O)CCN(CC(=O)[O-])CC1.[Gd+3] [Gd(DOTA), gadoterate meglumine]",r1 4.7 T,[1]; 4.7 T,2.8 ± 0.10 mM⁻¹ s⁻¹
same,r2 4.7 T,[1]; 4.7 T,3.7 ± 0.20 mM⁻¹ s⁻¹
"CNC[C@H](O)[C@@H](O)[C@H](O)[C@H](O)CO.CNC[C@H](O)[C@@H](O)[C@H](O)[C@H](O)CO.O=C([O-])CN(CCN(CC(=O)[O-])CC(=O)O)CCN(CC(=O)[O-])CC(=O)O.[Gd+3] [Gd(DTPA), gadopentetate dimeglumine]",r1 9.4 T,[1]; 9.4 T,2.5 mM⁻¹ s⁻¹
same,r1 4.7 T,"[1]; buffer, pH 7.4, 37 °C, 4.7 T",3.1 mM⁻¹ s⁻¹
same,r1 in HSA 4.7 T,"[1]; in HSA, 4.7 T",3.2 mM⁻¹ s⁻¹
